In a compilation of properties of binary mixtures (doi:10.1016/j.molliq.2017.03.027):

Test: xn = mol fraction of the nth substance listed
Settings: 100 kPa

CS(C)=O + CCCC[n+]1ccn(C)c1.O=S(=O)([N-]S(=O)(=O)C(F)(F)F)C(F)(F)F
Settings | speed of sound [m/s] | viscosity [mPa·s]
298.15 K, x1 = 0.0951 | 1232.7 | 40.36
298.15 K, x1 = 0.2074 | 1239.8 | 33.72
298.15 K, x1 = 0.2885 | 1246 | 28.98
298.15 K, x1 = 0.4003 | 1257.9 | 22.18
298.15 K, x1 = 0.5026 | 1269.8 | 17.18
298.15 K, x1 = 0.7066 | 1299.3 | 8.91
298.15 K, x1 = 0.8039 | 1329 | 5.97
298.15 K, x1 = 0.9012 | 1384.8 | 3.51
298.15 K, x1 = 1 | 1490.5 | 2.03
303.15 K, x1 = 0.0951 | 1221.2 | 32.94
303.15 K, x1 = 0.2074 | 1228.1 | 27.62
303.15 K, x1 = 0.4003 | 1245.8 | 18.3
303.15 K, x1 = 0.5903 | 1267.6 | 11.04
303.15 K, x1 = 0.7066 | 1286.2 | 8.01
303.15 K, x1 = 0.8039 | 1315.2 | 5.17
303.15 K, x1 = 0.9012 | 1369.9 | 3.15
303.15 K, x1 = 1 | 1473.6 | 1.84
308.15 K, x1 = 0.0951 | 1209.8 | 26.98
308.15 K, x1 = 0.2074 | 1216.8 | 22.9
308.15 K, x1 = 0.2885 | 1222.7 | 19.59
308.15 K, x1 = 0.4003 | 1233.9 | 15.42
308.15 K, x1 = 0.5026 | 1245.1 | 11.71
308.15 K, x1 = 0.7066 | 1273.2 | 6.73
308.15 K, x1 = 0.8039 | 1301.4 | 4.62
308.15 K, x1 = 0.9012 | 1355 | 2.84
313.15 K, x1 = 0.2885 | 1211.1 | 17.04
313.15 K, x1 = 0.4003 | 1221.8 | 13.35
313.15 K, x1 = 0.5026 | 1232.9 | 10.62
313.15 K, x1 = 0.7066 | 1260.2 | 5.96
313.15 K, x1 = 0.8039 | 1287.7 | 4.17
313.15 K, x1 = 0.9012 | 1340.2 | 2.57
318.15 K, x1 = 0.0951 | 1187.5 | 19.53
318.15 K, x1 = 0.2074 | 1194.2 | 16.67
318.15 K, x1 = 0.2885 | 1199.7 | 14.57
318.15 K, x1 = 0.4003 | 1210.1 | 11.47
318.15 K, x1 = 0.5026 | 1220.8 | 8.84
318.15 K, x1 = 0.5903 | 1229.8 | 7.4
318.15 K, x1 = 0.7066 | 1247.2 | 5.63
318.15 K, x1 = 0.8039 | 1274.4 | 3.71
318.15 K, x1 = 0.9012 | 1325.4 | 2.33
318.15 K, x1 = 1 | 1423.3 | 1.41
323.15 K, x1 = 0.0951 | 1176.3 | 16.81
323.15 K, x1 = 0.2074 | 1182.9 | 14.37
323.15 K, x1 = 0.2885 | 1188.1 | 12.56
323.15 K, x1 = 0.4003 | 1198.2 | 9.96
323.15 K, x1 = 0.5026 | 1208.5 | 7.69
323.15 K, x1 = 0.5903 | 1217.3 | 6.39
323.15 K, x1 = 0.7066 | 1233.9 | 5.01
323.15 K, x1 = 0.8039 | 1260.4 | 3.32
323.15 K, x1 = 1 | 1406.7 | 1.3

CCCC[n+]1ccn(C)c1.O=S(=O)([N-]S(=O)(=O)C(F)(F)F)C(F)(F)F + CO
Settings | speed of sound [m/s] | viscosity [mPa·s]
298.15 K, x2 = 0 | 1227.5 | 49.6
298.15 K, x2 = 0.2068 | 1218.3 | 34.37
298.15 K, x2 = 0.295 | 1213.6 | 28.65
298.15 K, x2 = 0.4004 | 1208.6 | 22.3
298.15 K, x2 = 0.4923 | 1202 | 17.55
298.15 K, x2 = 0.5956 | 1191.3 | 12.55
298.15 K, x2 = 0.7947 | 1159.2 | 5.11
298.15 K, x2 = 0.8978 | 1134.4 | 1.7
303.15 K, x2 = 0.2068 | 1206.7 | 28.28
303.15 K, x2 = 0.295 | 1202.3 | 23.6
303.15 K, x2 = 0.4923 | 1190.3 | 14.6
303.15 K, x2 = 0.5956 | 1180 | 10.52
303.15 K, x2 = 0.7056 | 1164.1 | 6.79
303.15 K, x2 = 0.7947 | 1146.7 | 4.38
303.15 K, x2 = 0.8978 | 1121.2 | 1.55
308.15 K, x2 = 0 | 1205.5 | 33.25
308.15 K, x2 = 0.0986 | 1201.6 | 28.87
308.15 K, x2 = 0.2068 | 1196 | 23.61
308.15 K, x2 = 0.295 | 1192.5 | 19.98
308.15 K, x2 = 0.4004 | 1186.7 | 15.74
308.15 K, x2 = 0.4923 | 1179.1 | 12.56
308.15 K, x2 = 0.5956 | 1169.2 | 9.2
308.15 K, x2 = 0.7056 | 1152.6 | 5.97
308.15 K, x2 = 0.7947 | 1134.5 | 3.97
308.15 K, x2 = 0.8978 | 1108.1 | 1.42
313.15 K, x2 = 0 | 1193.5 | 28
313.15 K, x2 = 0.0986 | 1190.8 | 24.53
313.15 K, x2 = 0.2068 | 1184.4 | 20.1
313.15 K, x2 = 0.295 | 1180.8 | 17.14
313.15 K, x2 = 0.4004 | 1175.5 | 13.55
313.15 K, x2 = 0.4923 | 1168 | 10.82
313.15 K, x2 = 0.5956 | 1158.3 | 8.03
313.15 K, x2 = 0.7056 | 1141.2 | 5.28
313.15 K, x2 = 0.7947 | 1122.6 | 3.54
313.15 K, x2 = 0.8978 | 1095.2 | 1.31
318.15 K, x2 = 0 | 1183.5 | 23.75
318.15 K, x2 = 0.2068 | 1173.6 | 17.22
318.15 K, x2 = 0.4004 | 1164.9 | 11.7
318.15 K, x2 = 0.5956 | 1147.7 | 7.01
318.15 K, x2 = 0.7947 | 1110.5 | 3.13
318.15 K, x2 = 0.8978 | 1082.2 | 1.21
323.15 K, x2 = 0 | 1171.3 | 20.39
323.15 K, x2 = 0.0986 | 1169.3 | 18.1
323.15 K, x2 = 0.2068 | 1162.4 | 14.96
323.15 K, x2 = 0.295 | 1160 | 12.89
323.15 K, x2 = 0.4004 | 1154.4 | 10.31
323.15 K, x2 = 0.4923 | 1146.6 | 8.33
323.15 K, x2 = 0.5956 | 1137.2 | 6.21
323.15 K, x2 = 0.7947 | 1098.7 | 2.81

CO + CCCC[n+]1ccn(C)c1.O=S(=O)([N-]S(=O)(=O)C(F)(F)F)C(F)(F)F
x1 = 1
Settings | speed of sound [m/s] | viscosity [mPa·s]
298.15 K | 1103.3 | 0.55
303.15 K | 1086.9 | 0.51
308.15 K | 1070.6 | 0.48
313.15 K | 1054.5 | 0.45
318.15 K | 1038.5 | 0.42
323.15 K | 1022.5 | 0.41

CCCC[n+]1ccn(C)c1.O=S(=O)([N-]S(=O)(=O)C(F)(F)F)C(F)(F)F + CS(C)=O
x2 = 0
Settings | speed of sound [m/s] | viscosity [mPa·s]
298.15 K | 1227.5 | 49.6
308.15 K | 1205.5 | 33.25
313.15 K | 1193.5 | 28
323.15 K | 1171.3 | 20.39
